Laboratory results reported in patent publication US7250442B2, “Dihydroindol-2-one derivatives as steroid hormone nuclear receptor modulators” (Eli Lilly and Company, priority 2003, dated 2007).

Target: T1, human MR (Homo sapiens, UniProt P08235)
T1 construct: The full length human MR gene is cloned from a human kidney or human brain cDNA library; made in house; host or cells: Sf9 insect cells (baculovirus, pAcHLT transfer vector)
T1 sequence (P08235 1-984): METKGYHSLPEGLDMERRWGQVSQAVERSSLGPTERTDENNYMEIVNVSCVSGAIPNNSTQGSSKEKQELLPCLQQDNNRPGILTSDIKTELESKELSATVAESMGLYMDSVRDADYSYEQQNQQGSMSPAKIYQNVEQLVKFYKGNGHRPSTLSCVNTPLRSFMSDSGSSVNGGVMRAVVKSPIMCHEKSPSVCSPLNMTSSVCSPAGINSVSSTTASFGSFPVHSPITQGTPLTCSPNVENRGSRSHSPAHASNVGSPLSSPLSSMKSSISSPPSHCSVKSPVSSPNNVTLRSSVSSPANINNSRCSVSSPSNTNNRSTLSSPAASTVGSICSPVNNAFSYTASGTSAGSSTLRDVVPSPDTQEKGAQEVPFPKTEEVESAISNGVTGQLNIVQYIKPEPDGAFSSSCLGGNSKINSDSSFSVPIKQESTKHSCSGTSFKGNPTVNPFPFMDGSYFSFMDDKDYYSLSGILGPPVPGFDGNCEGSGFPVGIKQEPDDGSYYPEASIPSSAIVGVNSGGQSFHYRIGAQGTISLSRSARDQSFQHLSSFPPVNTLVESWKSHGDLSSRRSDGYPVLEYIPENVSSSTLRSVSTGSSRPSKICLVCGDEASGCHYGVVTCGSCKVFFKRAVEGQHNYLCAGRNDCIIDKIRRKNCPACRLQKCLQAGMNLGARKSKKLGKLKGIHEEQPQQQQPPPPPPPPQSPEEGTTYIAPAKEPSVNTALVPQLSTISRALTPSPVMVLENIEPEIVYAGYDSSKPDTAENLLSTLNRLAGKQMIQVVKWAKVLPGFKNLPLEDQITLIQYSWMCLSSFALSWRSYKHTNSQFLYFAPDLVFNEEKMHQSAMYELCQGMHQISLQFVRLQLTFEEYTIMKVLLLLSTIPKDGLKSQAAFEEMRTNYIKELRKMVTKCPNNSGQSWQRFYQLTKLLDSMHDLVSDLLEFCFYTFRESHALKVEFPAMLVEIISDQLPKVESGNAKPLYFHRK
Assay: Mineralocorticoid Receptor Binding Assay ([3H]-aldosterone displacement)
Conditions: full length human MR expressed in Sf9 cells, 0.5 nM [3H]-aldosterone
Method in brief: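 Full-length human MR expressed in Sf9 cells; lysate (20-25 μg protein) incubated with 0.5 nM [3H]-aldosterone and test compound in molybdate/Tris/phosphate/glycerol buffer pH 7.5, 16 h at 4 °C. Bound ligand measured by filtration and scintillation counting; IC50 converted to Ki via Cheng-Prusoff.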

- Ki: ≤ 500 nM
Compound: Cc1cc(C2(c3cc(C)c(O)c(C)c3)C(=O)N(c3cccc(Br)c3)c3ccccc32)cc(C)c1O [Example 139, 1-(3-Bromo-phenyl)-3,3-bis-(4-hydroxy-3,5-dimethyl-phenyl)-1,3-dihydro-indol-2-one]
